≈ marks a conversion by molar mass, not a printed value. Where two headings read alike, the source gives them in different places.
Assays:
Assay type in all cases: cell-based
[1] = tested on: M. suipneumoniae NB12; assay: Anti-mycoplasmal activity in vitro MIC; conditions: Mesomycoplasma hyopneumoniae
[2] = tested on: M. suipneumoniae JF 435; assay: Anti-mycoplasmal activity in vitro MIC; conditions: Mesomycoplasma hyopneumoniae, JF435, 144 h
[3] = tested on: M. suipneumoniae HK (2); assay: Anti-mycoplasmal activity in vitro MIC; conditions: Mesomycoplasma hyopneumoniae, 144 h
[4] = tested on: M. suipneumoniae Str. 11; assay: Anti-mycoplasmal activity in vitro MIC; conditions: Mesomycoplasma hyopneumoniae
[5] = tested on: M. suipneumoniae UCD 1; assay: Anti-mycoplasmal activity in vitro MIC; conditions: Mesomycoplasma hyopneumoniae, UCD1, 144 h
[6] = tested on: M. suipneumoniae TAM 6N; assay: Anti-mycoplasmal activity in vitro MIC; conditions: Mesomycoplasma hyopneumoniae, TAM6N, 144 h
[7] = tested on: M. suipneumoniae ATCC 25095; assay: Anti-mycoplasmal activity in vitro MIC; conditions: Mesomycoplasma hyopneumoniae, ATCC25095, 144 h; M. suipneumoniae ATCC 25095; Friis broth, 0.9% agarose, 6 days 37° C.; read-out: M.I.C.
[8] = tested on: M. suipneumoniae NCTC 10110; assay: Anti-mycoplasmal activity in vitro MIC; conditions: Mesomycoplasma hyopneumoniae, NCTC10110, 144 h
[9] = tested on: M. hyosynoviae ATCC 25591; assay: Anti-mycoplasmal activity in vitro MIC; conditions: 144 h
[10] = tested on: M. dispar NCTC 10125; assay: Anti-mycoplasmal activity in vitro MIC; conditions: 144 h
[11] = tested on: M. gallisepticum S6; assay: Anti-mycoplasmal activity in vitro MIC; conditions: Mycoplasmoides gallisepticum
[12] = tested on: Bord. brochiasetpica B09; assay: Veterinary bacteria MIC; conditions: Diagnostic Sensitivity Test Agar, 18 hours 37° C.
Description: (§1) The values were determined using a two fold serial dilutions in Diagnostic Sensitivity Test Agar with an inoculum of 10^4 organisms and incubation for 18 hours at 37° C.

[13] = tested on: Bord. bronchiseptica B08; assay: Veterinary bacteria MIC; conditions: Bordetella bronchiseptica
Description: as §1

[14] = tested on: Corynebacterium pyogenes CY1; assay: Veterinary bacteria MIC; conditions: Trueperella pyogenes
Description: as §1

[15] = tested on: E. coli El; assay: Veterinary bacteria MIC; conditions: Escherichia coli
Description: as §1

[16] = tested on: E. coli NCTC 10418; assay: Veterinary bacteria MIC; conditions: Escherichia coli
Description: as §1

[17] = tested on: Erysipelothrix rhusiopathiae NCTC 8163; assay: Veterinary bacteria MIC
Description: as §1

[18] = tested on: Past. haemolytica PA5; assay: Veterinary bacteria MIC; conditions: Mannheimia haemolytica
Description: as §1

[19] = tested on: Past. multocida PA1; assay: Veterinary bacteria MIC; conditions: Pasteurella multocida, Diagnostic Sensitivity Test Agar, 18 hours 37° C.
Description: as §1

[20] = tested on: Past. multocida PA2; assay: Veterinary bacteria MIC; conditions: Pasteurella multocida; Past. multocida PA2; Diagnostic Sensitivity Test Agar, 18 hours 37° C.; read-out: M.I.C.
Description: as §1

[21] = tested on: S. dublin S7; assay: Veterinary bacteria MIC; conditions: Salmonella enterica
Description: as §1

[22] = tested on: S. typhimurium S18; assay: Veterinary bacteria MIC; conditions: Salmonella enterica
Description: as §1

[23] = tested on: Staph. aureus 152 (pen. sens); assay: Veterinary bacteria MIC; conditions: Staphylococcus aureus, Diagnostic Sensitivity Test Agar, 18 hours 37° C.
Description: as §1

[24] = tested on: Staph. aureus B4 (pen. resistant); assay: Veterinary bacteria MIC; conditions: Staphylococcus aureus, Diagnostic Sensitivity Test Agar, 18 hours 37° C.
Description: as §1

[25] = tested on: Staph. aureus Oxford; assay: Veterinary bacteria MIC; conditions: Staphylococcus aureus, Diagnostic Sensitivity Test Agar, 18 hours 37° C.
Description: as §1

[26] = tested on: Strep. agalactiae SPA1; assay: Veterinary bacteria MIC; conditions: Streptococcus agalactiae, Diagnostic Sensitivity Test Agar, 18 hours 37° C.
Description: as §1

[27] = tested on: Strep. dysgalactiae SPD1; assay: Veterinary bacteria MIC; conditions: Streptococcus dysgalactiae, Diagnostic Sensitivity Test Agar, 18 hours 37° C.
Description: as §1

[28] = tested on: Strep. suis (Group D) SPS11; assay: Veterinary bacteria MIC; conditions: Streptococcus suis
Description: as §1

[29] = tested on: Strep. uberis SPU1; assay: Veterinary bacteria MIC; conditions: Streptococcus uberis, Diagnostic Sensitivity Test Agar, 18 hours 37° C.
Description: as §1

[30] = tested on: Sarcina lutea 8340; assay: Human bacteria MIC
Description: The values were determined by serial dilutions in nutrient agar with 5% chocolated horse blood after incubations for 18 hours at 37° C.

[31] = 144 h, M. suipneumoniae NB12, Friis broth, 0.9% agarose, 6 days 37° C., read-out: M.I.C.
[32] = M. suipneumoniae JF 435, Friis broth, 0.9% agarose, 6 days 37° C., read-out: M.I.C.
[33] = M. suipneumoniae NCTC 10110, Friis broth, 0.9% agarose, 6 days 37° C., read-out: M.I.C.
[34] = Bord. bronchiseptica B08, Diagnostic Sensitivity Test Agar, 18 hours 37° C., read-out: M.I.C.
[35] = Past. haemolytica PA5, Diagnostic Sensitivity Test Agar, 18 hours 37° C., read-out: M.I.C.
[36] = Strep. suis (Group D) SPS11, Diagnostic Sensitivity Test Agar, 18 hours 37° C., read-out: M.I.C.
[37] = 144 h, M. suipneumoniae Str. 11, Friis broth, 0.9% agarose, 6 days 37° C., read-out: M.I.C.
[38] = Erysipelothrix rhusiopathiae, NCTC8163, 18 h

C/C(=C\C(=O)OC1CCC(=NO)CC1)C[C@@H]1OC[C@H](C[C@@H]2O[C@H]2[C@@H](C)[C@H](C)O)[C@@H](O)[C@H]1O (stereo partly drawn) [Example 3, 4-Hydroxyiminocyclohexyl monate A]
MIC [1, 31]: 0.5 µg/mL (≈ 1.1 µM) | MIC [2, 32]: 0.5 µg/mL (≈ 1.1 µM) | MIC ([3]; M. suipneumoniae HK (2), Friis broth, 0.9% agarose, 6 days 37° C., read-out: M.I.C.): 0.5 µg/mL (≈ 1.1 µM) | MIC ([4]; STR.11, 144 h): 0.25 µg/mL (≈ 0.549 µM) | MIC ([5]; M. suipneumoniae UCD 1, Friis broth, 0.9% agarose, 6 days 37° C., read-out: M.I.C.): 0.5 µg/mL (≈ 1.1 µM) | MIC ([6]; M. suipneumoniae TAM 6N, Friis broth, 0.9% agarose, 6 days 37° C., read-out: M.I.C.): 0.5 µg/mL (≈ 1.1 µM) | MIC [7]: 0.5 µg/mL (≈ 1.1 µM) | MIC [8, 33]: 0.5 µg/mL (≈ 1.1 µM) | MIC [9]: 0.1 µg/mL (≈ 0.22 µM) | MIC [10]: 0.1 µg/mL (≈ 0.22 µM) | MIC ([11]; S6, 144 h): 5 µg/mL (≈ 11 µM) | MIC [12]: 20 µg/mL (≈ 43.9 µM) | MIC [13, 34]: > 80 µg/mL | MIC ([14]; Corynebacterium pyogenes CY1, Diagnostic Sensitivity Test Agar, 18 hours 37° C., read-out: M.I.C.): > 80 µg/mL | MIC ([15]; E. coli El, Diagnostic Sensitivity Test Agar, 18 hours 37° C., read-out: M.I.C.): > 80 µg/mL | MIC ([16]; NCTC10418, E. coli NCTC 10418, Diagnostic Sensitivity Test Agar, 18 hours 37° C., read-out: M.I.C.): > 80 µg/mL | MIC ([17]; NCTC8163, Erysipelothrix rhusiopathiae NCTC 8163, Diagnostic Sensitivity Test Agar, 18 hours 37° C., read-out: M.I.C.): 10 µg/mL (≈ 22 µM) | MIC [18, 35]: 5 µg/mL (≈ 11 µM) | MIC [19]: 1.25 µg/mL (≈ 2.74 µM) | MIC [20]: 0.312 µg/mL (≈ 0.685 µM) | MIC ([21]; S. dublin S7, Diagnostic Sensitivity Test Agar, 18 hours 37° C., read-out: M.I.C.): > 80 µg/mL | MIC ([22]; S. typhimurium S18, Diagnostic Sensitivity Test Agar, 18 hours 37° C., read-out: M.I.C.): > 80 µg/mL | MIC [23]: 1.25 µg/mL (≈ 2.74 µM) | MIC [24]: 2.5 µg/mL (≈ 5.49 µM) | MIC [25]: 1.25 µg/mL (≈ 2.74 µM) | MIC [26]: 0.625 µg/mL (≈ 1.37 µM) | MIC [27]: 0.312 µg/mL (≈ 0.685 µM) | MIC [28, 36]: 2.5 µg/mL (≈ 5.49 µM) | MIC [29]: 0.156 µg/mL (≈ 0.342 µM) | MIC ([30]; Micrococcus luteus, Sarcina lutea 8340, nutrient agar, 5% chocolated horse blood, 18 hours 37° C., read-out: M.I.C.): > 100 µg/mL

C/C(=C\C(=O)OCc1ccc(C=NO)o1)C[C@@H]1OC[C@H](C[C@@H]2O[C@H]2[C@@H](C)[C@H](C)O)[C@@H](O)[C@H]1O [Example 7, 5-Hydroxyiminomethylfurfuryl monate A]
MIC ([1]; NB12, 144 h): 1 µg/mL (≈ 2.14 µM) | MIC [2]: 1 µg/mL (≈ 2.14 µM) | MIC [3]: 1 µg/mL (≈ 2.14 µM) | MIC [4, 37]: 0.5 µg/mL (≈ 1.07 µM) | MIC [5]: 1 µg/mL (≈ 2.14 µM) | MIC [6]: 1 µg/mL (≈ 2.14 µM) | MIC [7]: 0.5 µg/mL (≈ 1.07 µM) | MIC [8]: 1 µg/mL (≈ 2.14 µM) | MIC [9]: 0.25 µg/mL (≈ 0.535 µM) | MIC [10]: 0.1 µg/mL (≈ 0.214 µM) | MIC ([11]; 144 h, M. gallisepticum S6, Friis broth, 0.9% agarose, 6 days 37° C., read-out: M.I.C.): 5 µg/mL (≈ 10.7 µM) | MIC [12]: 2.5 µg/mL (≈ 5.35 µM) | MIC [13, 34]: > 80 µg/mL | MIC ([14]; CY1, 18 h): > 80 µg/mL | MIC ([15]; 18 h): > 80 µg/mL | MIC ([16]; NCTC10418, 18 h): > 80 µg/mL | MIC [17, 38]: > 80 µg/mL | MIC ([18]; PA5, 18 h): 5 µg/mL (≈ 10.7 µM) | MIC [19]: 0.625 µg/mL (≈ 1.34 µM) | MIC [20]: 0.625 µg/mL (≈ 1.34 µM) | MIC ([21]; S7, 18 h): > 80 µg/mL | MIC ([22]; TYPHIMURIUM, 18 h): > 80 µg/mL | MIC [23]: 1.25 µg/mL (≈ 2.67 µM) | MIC [24]: 1.25 µg/mL (≈ 2.67 µM) | MIC [25]: 1.25 µg/mL (≈ 2.67 µM) | MIC [26]: 1.25 µg/mL (≈ 2.67 µM) | MIC [27]: 0.625 µg/mL (≈ 1.34 µM) | MIC [28, 36]: 20 µg/mL (≈ 42.8 µM) | MIC [29]: 0.625 µg/mL (≈ 1.34 µM) | MIC ([30]; Micrococcus luteus, 8340, 18 h): > 100 µg/mL

C/C(=C\C(=O)OCCCCCC=NN(C)C)C[C@@H]1OC[C@H](C[C@@H]2O[C@H]2[C@@H](C)[C@H](C)O)[C@@H](O)[C@H]1O [Example 6, 6-Dimethylhydrazonohexyl monate A]
MIC [1, 31]: 0.5 µg/mL (≈ 1.03 µM) | MIC [2, 32]: 0.5 µg/mL (≈ 1.03 µM) | MIC [3]: 1 µg/mL (≈ 2.06 µM) | MIC [4, 37]: 0.5 µg/mL (≈ 1.03 µM) | MIC [5]: 1 µg/mL (≈ 2.06 µM) | MIC [6]: 1 µg/mL (≈ 2.06 µM) | MIC [7]: 0.5 µg/mL (≈ 1.03 µM) | MIC [8, 33]: 0.5 µg/mL (≈ 1.03 µM) | MIC [9]: 0.1 µg/mL (≈ 0.206 µM) | MIC [10]: 0.25 µg/mL (≈ 0.516 µM) | MIC ([11]; S6, 144 h): 5 µg/mL (≈ 10.3 µM) | MIC [12]: 2.5 µg/mL (≈ 5.16 µM) | MIC ([13]; B08, 18 h): 5 µg/mL (≈ 10.3 µM) | MIC ([14]; CY1, 18 h): > 80 µg/mL | MIC ([15]; 18 h): > 80 µg/mL | MIC ([16]; NCTC10418, 18 h): > 80 µg/mL | MIC [17, 38]: 80 µg/mL (≈ 165 µM) | MIC [18, 35]: 10 µg/mL (≈ 20.6 µM) | MIC [19]: 2.5 µg/mL (≈ 5.16 µM) | MIC [20]: 0.312 µg/mL (≈ 0.644 µM) | MIC ([21]; S7, 18 h): > 80 µg/mL | MIC ([22]; TYPHIMURIUM, 18 h): > 80 µg/mL | MIC [23]: 0.07 µg/mL (≈ 0.144 µM) | MIC [24]: 0.07 µg/mL (≈ 0.144 µM) | MIC [25]: 0.07 µg/mL (≈ 0.144 µM) | MIC [26]: 1.25 µg/mL (≈ 2.58 µM) | MIC [27]: 0.07 µg/mL (≈ 0.144 µM) | MIC ([28]; 18 h): 20 µg/mL (≈ 41.3 µM) | MIC [29]: 0.312 µg/mL (≈ 0.644 µM) | MIC ([30]; Micrococcus luteus, 8340, 18 h): > 100 µg/mL

— patent US4362743A, “Antibacterial monic acid esters” (Beecham Group Limited, priority 1980, dated 1982)
